The test system of one data set is insulin. The class given is in vivo, human. Conditions: for control of GH-induced hyperinsulinemia by single agent: each agent alone with GH. From the text: (§1) Data variability was minimized and controlled by using each volunteer as their own control, and by standardizing the time and day of blood sampling. Blood was generally collected between 7 AM and 10 AM to avoid the effects of circadian and other temporal influences. In addition, patients standardized their pre-testing evening meal, used consistent testing sites and methods, and were redundantly tested between pre-established time points in some cases. All volunteers were asked to take supplements of 3000 IU vitamin D3 and 50 mg of elemental zinc daily. Further, volunteers were instructed not to consume food or alcohol within 4 hours of medication administration.
(§2) The initial dose of GH was 0.015 mg/kg, injected subcutaneously into superficial abdominal fat using a provided “pen” injector designed for this purpose. GH doses were varied over the time course described above so as to maximize IGF1, and were not adjusted for any changes in body weight.
Here, for context, insulin blood levels are expressed as a fraction of the distance from the bottom of the normal range to the top of the normal range. Although insulin control was not perfect, the final increase in insulin at trial end was acceptable based on volunteers averaging about one fifth of the upper limit for insulin. […] . Insulin and the normal insulin range were as reported by Quest Diagnostics.

The subject of a further data set is epigenetic age. Conditions: women, ref [35]; cited from earlier work.
Data set [1] in a line: Tolerability of high metformin doses. The class given is in vivo, human. Here is the method: We were able to use higher doses with minimal to no difficulty by devising the following dosing methods.
In these methods, “dinner” need not be taken literally, the essence of the concept being to essentially administer a large virtual dose by combining two smaller doses that are administered within an effective time span, which may be 1-5 hours in duration, but preferably 1-2 hours in duration, to reduce side effects such as gastric distress while still enabling increased control of hyperinsulinemia.

The next data set concerns CD4/CD8 cell ratio. In words: TRIIM trial: CD4/CD8 cell ratio. The class given is in vivo, human. Conditions: peak at 3, 6-9 or 12 months in different men; one non-responder.
Text: as §1, §2
The decline of CD4/CD8 cell ratio with aging is a classical indication of the “immune risk phenotype” or immunosenescence, and appears to occur with or without chronic viral exposure and has been a strong predictor of the short-term risk of death. Our results therefore indicate that prior art methods of regenerating the thymus require improvement. […]

Data set [2] can be described thus: TRIIM trial: testosterone levels and benign prostatic hypertrophy under DHEA. Particulars: with GH or GH plus metformin.
Text: Nine normal, putatively healthy 50-65 year-old male volunteers with normal age-related thymic involution were enrolled in and completed a clinical study performed under an IND from the US Food and Drug Administration and separate supervision from a California Institutional Review Board. […] The TRIIM trial (standing for Thymus Regeneration, Immunorestoration, and Insulin Mitigation) treatment period was limited to 12 months. Exclusion criteria included GH use in the prior 10 years, carpal tunnel syndrome, malignancies or high risk of malignancy, BMI greater than 30, PSA above the age-adjusted range, symptomatic prostatic hypertrophy, unstable metabolic disorders, unstable cardiovascular disorders, elevated levels of inflammatory markers, alcoholism, allergy to study medications, cognitive impairment, abnormal metabolic or hormonal results, existing type 1 or type 2 diabetes, or other unstable medical conditions.
The next data set relates to prostate. In words: Report of one individual: prostatic hypertrophy with DHEA. The class given is in vivo, human. An excerpt:
Accordingly, our results, methods, and medication compositions and combinations enable beneficial new treatments to improve human health and enable beneficial new drug indications.

For data set [3] the following is noted: 50 mg per day, 65-75 year old men, no GH, ref [46]; cited from earlier work.

The text below walks through data of patent US11730795B2, “Pharmaceuticals and dosing means for human aging reversal” (INTERVENE IMMUNE, INC., priority 2017, dated 2023).

On to `CN(C)C(=N)N=C(N)N` [metformin], for which the “control of GH-induced hyperinsulinemia” value with insulin (850-1200 mg metformin, morning after GH dose, even with DHEA) is “very insufficient”. Moreover, the “control of GH-induced hyperinsulinemia by single agent” value with insulin was “neither agent alone was sufficient”. For the same compound, the “effect on epigenetic aging” value in the data set on epigenetic age was “not shown to either slow or reverse epigenetic aging”. Besides, the tolerability result in data set [1] (500 mg with dinner plus 1000 mg with HGH and DHEA, total 1500 mg) was “universally well tolerated”; in data set [1] (1500 mg at dinner plus 1000 mg with DHEA and HGH at bedtime, 2500 mg), “well tolerated”; in data set [1] (1500 or 2000 mg in one dose with GH at bedtime) it was “well tolerated”.

Turning to human growth hormone [GH], in the data set with insulin (in vivo), the “insulin level with GH alone” value was “rise in insulin”. The “course of CD4/CD8 cell ratio” value in the data set on CD4/CD8 cell ratio was “peaks in the face of a constant or an increasing dose of GH or rise in IGF-1, and thereafter declines”.

Regarding `C[C@]12CC[C@H](O)CC1=CC[C@@H]1[C@@H]2CC[C@]2(C)C(=O)CC[C@@H]12` [DHEA, dehydroepiandrosterone], in data set [2] (doses up to 200 mg), the “raising of testosterone levels” value was “not found”. Besides, in data set [2], the “induction of benign prostatic hypertrophy” value is listed as “not found”. Besides, the “control of GH-induced hyperinsulinemia by single agent” value with insulin was “neither agent alone was sufficient”. The prostatic hypertrophy entry in the data set with prostate (DHEA alone or in combination with metformin) was “caused immediate and significant prostatic hypertrophy”; in the data set with prostate (DHEA in combination with both metformin and GH) it was “actually reversed”. Also, in data set [3], the glucose tolerance result is “improve glucose tolerance”.
